These results are taken from patent US20100216795A1, “TNIK INHIBITOR AND THE USE” (priority 2008, published 2010).

In the data set the test system is HCT-116 cells. Put plainly: HCT-116 xenograft growth after intratumoral siRNA. It counts as in vivo, BALB/c nu/nu nude mice. The settings on record: HCT-116 tumours. On the procedure:
We next examined the effects of TNIK on the growth of human colon cancer cells in vivo (FIG. 2). HCT-116 cells were implanted in the flank of immunodeficient mice. One week after the inoculation, siRNA against TNIK (12 or 13) mixed with atelocollagen (Takeshita, F. et al. Efficient delivery of small interfering RNA to bone-metastatic tumors by using atelocollagen in vivo. Proc Natl Acad Sci USA 102, 12177 (2005)) was injected directly into the tumours (224.5±8.9 mm^3 in size). Three days after the siRNA injection, some tumours were excised and the silencing of TNIK mRNA was confirmed by real-time PCR (FIG. 2b). The volume of xenografts was monitored for 18 days after siRNA injection (FIG. 2a). […] We observed similar regression of established tumours after a single injection of siRNA against TNIK in two other colorectal cancer cell lines, DLD1 and WiDr (FIGS. 3 and 4).
a, HCT-116 cells were inoculated into BALB/c nu/nu nude mice subcutaneously. The developed tumours were not treated, or treated with only atelocollagen, control RNA (X or IX) or siRNA against TNIK (12 or 13). The volume of tumours (n=8 per group) was monitored as indicated. #, P<0.001 (Mann-Whitney U-test); Bars, SE; N.S., not significant. b, mRNA expression of TNIK in tumours injected with siRNA (n=3 per group). c, d, Representative appearance of mice and excised tumours 18 days after the injection of siRNA. Columns indicate the average weight of excised tumours (n=8 per group). $, P<0.005 (Mann-Whitney U-test); Bars, SE.
5×10^6 HCT-116, DLD1 or WiDr cells suspended in 0.1 ml of PBS were subcutaneously inoculated into the flanks of 5-week-old female BALB/c nu/nu nude mice (SLC, Tokyo, Japan). One week later the developed tumours were treated with siRNA together with atelocollagen (AteloGene; KOKEN, Tokyo, Japan) (Takeshita, F. et al. Efficient delivery of small interfering RNA to bone-metastatic tumors by using atelocollagen in vivo. Proc Natl Acad Sci USA 102, 12177 (2005)). The final concentration of siRNA was 30 μM and that of atelocollagen was 0.5%. A 0.2-ml volume of siRNA solution was injected directly into each tumour. Tumour volume was determined as V=A×[…], where A and B represent the largest and smallest dimensions (Bergers, G et al. Effects of angiogenesis inhibitors on multistage carcinogenesis in mice. Science 284, 808 (1999)).

Consider “siRNA against TNIK (13): small interfering RNA against TNIK, sense 5′-GACCGAAGCUCUUGGUUACUU-3′, synthesized by Dharmacon (antisense GUAACCAAGAGCUUCGGUCUU; listed as RNA, chemistry not given here)”, for which the “excised tumours versus not treated, atelocollagen only or control RNA” value (18 days after the injection of siRNA) is “significantly smaller”. Besides, the volume of xenografts result (single injection of siRNA with atelocollagen into the tumour, monitored 18 days) is “regressed almost completely”.
